Values quoted from earlier work, collected in US20030162237A1, “Methods of monitoring enzyme activity” (priority 2000, published 2003).
Like-named read-outs stand apart in the source and are kept apart here.

Assays:
stem-loop IIB RNA = details: phosphorylated by PKC or HMK, versus unphosphorylated H6Rev

Compound: Nc1ncn([C@H]2C[C@H](O)[C@@H](CO)O2)c(=O)n1 [5-aza-2′-deoxycytidine]
- expression of malignancy suppressor genes (human tumor cell lines): reactivate the expression of many of the malignancy suppressor genes

Compound: P-H6Rev: HIV type-1 Rev protein H6Rev (accession number P04325) phosphorylated by PKC or HMK
- binds more tightly to stem-loop IIB RNA than unphosphorylated H6Rev (stem-loop IIB RNA): ligand 7-fold more tightly than H6Rev.
- binds more tightly to stem-loop IIB RNA than unphosphorylated H6Rev (stem-loop IIB RNA; listed as H6Rev): 7 fold
